“Also recorded” adds a separate entry of the source.
Columns and labels:
[1] = tested on: inside-out vesicles (IOV); experiment: Transnitrosylation of inside-out vesicles (IOV) by SNO-Hb; type: biochemical; conditions: IOVs (or source RBCs) treated before incubation with SNO-Hb
Experimental: RBCs derived from fresh venous blood and suspended in oxygen-purged phosphate-buffered saline (PBS) were exposed in gas-tight vials to NO, added as aliquots of oxygen-purged NO-saturated PBS to yield the specified NO:heme ratios based on spectrophotometric assessment of heme content. Exposure to NO was for 5 mins followed by rinses in PBS at 21% O2. RBCs were lysed in 10 mM MOPS, 0.1 mM DTPA, pH 7, followed by centrifugation at 20,000×g for 10 mins to produce membrane and cytosolic fractions, which were solubilized in 1% TX-100. Quantification of NO groups was by photolysis/chemiluminescence (McMahon, T. J. & Stamler, J. S., Meth. Enzymol. 301:99-114, 1999). SNO content was measured as NO removed by treating sample aliquots for 5 mins with HgCl2 at 5-fold molar excess over estimated thiol content (Gow, A. J. & Stamler, J. S., Nature 391:169-173, 1998; Gow, A. J. et al., Proc. Natl. Acad. Sci. USA 96:9027-9032, 1999; McMahon, T. J. & Stamler, J. S., Meth. Enzymol. 301:99-114, 1999). IOVs were prepared from outdated RBCs following Kondo (Kondo, T., Meth. Enzymol. 171:217-225, 1989) and stripped of peripheral membrane-bound proteins by washing for 60 mins in 0.5 M NaCl/100 mM Tris at pH 8. Chymotrypsin treatment of IOVs was for 15 mins at pH 7 and 37° C. with 5 U enzyme/mg IOV protein. For transnitrosylation, IOVs were incubated with SNO-Hb (50 nmoles SNO-Hb/mg IOV protein, about 10-fold excess over AE1) for 15 mins at pH 7 and 37° C. SNO-Hb was prepared from free or immobilized HbA (Apex) by selective S-nitrosylation of cysβ93 with S-nitroso-cysteine (Jia, L. et al., Nature 380:221-226, 1996; Stamler, J. S. et al., Science 276:2034-2037, 1997; McMahon, T. J. & Stamler, J. S., Meth. Enzymol. 301:99-114, 1999). Hb was immobilized on cyanogen bromide-activated Sepharose 4b.
Immunoprecipitation was carried out by incubation of TX-100 or NP-40 extracts with antibodies followed by protein G-Sepharose. […] Binding of SNO-Hb to IOVs was assessed in 10 mM MOPS buffer, pH 7, at room temperature and 21% O2. Incubation was for 15 mins before IOVs were solubilized in 1% TX-100, and heme content was assessed spectrophotometrically. When employed, RBCs were treated for 60 mins with DIDS (0.1 mM; calculated 10-fold molar excess over AE1), then washed thoroughly to remove unreacted DIDS. […]
IOVs incubated with SNO-Hb and washed at pH 8 to remove bound Hb incorporated about 450 pmol NO/milligram of TX-100-extracted IOV protein (FIG. 7D). […] It is important to note that SNO was not detected in extracts of IOVs exposed to NO in the absence of Hb (not shown). […] Following centrifugal separation, washes at pH 7 and solubilization in TX-100, extracts of IOVs were free of Hb as assessed by spectrophotometric detection of heme.

[2] = tested on: intact human erythrocytes; experiment: Distribution of NO groups in membrane and cytosolic fractions of RBCs exposed to NO; type: cell-based; conditions: 0.1 mM DIDS before NO, NO:heme 1:250
Experimental: RBCs derived from fresh venous blood and suspended in oxygen-purged phosphate-buffered saline (PBS) were exposed in gas-tight vials to NO, added as aliquots of oxygen-purged NO-saturated PBS to yield the specified NO:heme ratios based on spectrophotometric assessment of heme content. Exposure to NO was for 5 mins followed by rinses in PBS at 21% O2. RBCs were lysed in 10 mM MOPS, 0.1 mM DTPA, pH 7, followed by centrifugation at 20,000×g for 10 mins to produce membrane and cytosolic fractions, which were solubilized in 1% TX-100. Quantification of NO groups was by photolysis/chemiluminescence (McMahon, T. J. & Stamler, J. S., Meth. Enzymol. 301:99-114, 1999). SNO content was measured as NO removed by treating sample aliquots for 5 mins with HgCl2 at 5-fold molar excess over estimated thiol content (Gow, A. J. & Stamler, J. S., Nature 391:169-173, 1998; Gow, A. J. et al., Proc. Natl. Acad. Sci. USA 96:9027-9032, 1999; McMahon, T. J. & Stamler, J. S., Meth. Enzymol. 301:99-114, 1999). […]
Immunoprecipitation was carried out by incubation of TX-100 or NP-40 extracts with antibodies followed by protein G-Sepharose. […] Binding of SNO-Hb to IOVs was assessed in 10 mM MOPS buffer, pH 7, at room temperature and 21% O2. Incubation was for 15 mins before IOVs were solubilized in 1% TX-100, and heme content was assessed spectrophotometrically. […]

**Q.** Which “effect of prior treatment on transfer of NO groups from SNO-Hb to IOVs” value [1] does the source give for `O=S(=O)(O)c1cc(N=C=S)ccc1C=Cc1ccc(N=C=S)cc1S(=O)(=O)O` [DIDS, 4,4′-diisothiocyanatostilbene-2,2′-disulfonic acid] here?
**A.** reduced significantly; also recorded: greatly reduced

**Q.** What about the “effect on SNO in the membrane fraction” value [2] of the same molecule?
**A.** greatly decreased; also recorded: substantially decreases

**Q.** What about the “effect on net formation of NO-liganded Hb (total NO incorporated by RBCs)” value [2] of the same molecule?
**A.** did not reduce; also recorded: does not reduce

— patent publication US20090232909A1, “Method for determining physiological effects of hemoglobin” (priority 1999, published 2009)
